Where two headings read alike, the source gives them in different places.
How the values were obtained:
[1] = tested on: α-isomaltosylglucosaccharide-forming enzyme; test: Action on saccharides (substrates), Enzyme of Strain C11; type: biochemical, Bacillus globisporus C11; parameters: key: −: it showed no change; +: it showed a slight reduction of the color spot of the substrate and the formation of other reaction product; ++: it showed a high reduction of the color spot of the substrate and the formation of other reaction product; +++: it showed a substantial disappearance of the substrate spot and the formation of other reaction product; conditions: two units/g substrate, substrate 2% (w/v), 30° C., pH 6.0, 24 hours, TLC
Method in brief: (§1)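 Purified enzyme from each strain was added at 2 units/g substrate to each of 24 saccharides at 2% (w/v). Incubation ran 24 h at 30° C, pH 6.0, or pH 8.4 for the A19 enzyme. TLC compared reaction mixtures before and after incubation to show whether each substrate was acted on.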

[2] = tested on: α-isomaltosylglucosaccharide-forming enzyme; test: Transfer-acceptor specificity, Enzyme of Strain A19; type: biochemical, Arthrobacter globiformis A19; conditions: acceptor 1.6%, PINE-DEX #100 donor 4%, one unit/g donor, 30° C., pH 8.4, 24 hours
Method in brief: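 Each candidate acceptor at 1.6% was combined with 4% partial starch hydrolysate donor and 1 unit/g donor (d.s.b.) of purified enzyme. Incubation ran 24 h at 30 °C, pH 6.0 for the C9, C11 and N75 enzymes and pH 8.4 for A19. Transfer products were detected by GLC for mono- and disaccharide acceptors and HPLC for trisaccharide acceptors.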

[3] = tested on: Small intestinal mucosal enzyme; test: Digestion test in vitro, small intestinal mucosal enzyme
[4] = tested on: α-isomaltosylglucosaccharide-forming enzyme; test: Action on saccharides (substrates), Enzyme of Strain N75; type: biochemical, Bacillus globisporus N75; parameters: key: −: it showed no change; +: it showed a slight reduction of the color spot of the substrate and the formation of other reaction product; ++: it showed a high reduction of the color spot of the substrate and the formation of other reaction product; +++: it showed a substantial disappearance of the substrate spot and the formation of other reaction product; conditions: two units/g substrate, substrate 2% (w/v), 30° C., pH 6.0, 24 hours, TLC
Method in brief: as §1

[5] = Amino carbonyl reaction with glycine; type: physicochemical; conditions: 10% (w/v) with 1% (w/v) glycine, pH 7.0, 100° C.
Protocol: Four milliliters of the resulting solution were placed in a glass test tube, sealed, and heated at 100° C. for 30 to 90 min. After allowing to stand for cooling at ambient temperature, each of the resulting solutions was measured for coloration degree to examine on their amino carbonyl reactivity. The coloration degree was evaluated based on the absorbance in a cell with 1-cm light pass at a wavelength of 480 nm.

[6] = Reducing power on the Somogyi-Nelson's method; type: physicochemical
[7] = tested on: Escherichia coli IFO 3301; test: Assimilation test, Escherichia coli; type: cell-based; conditions: PYF medium with 0.5% saccharide, 37° C., four days, anaerobic
[8] = tested on: Small intestinal mucosal enzyme
[9] = tested on: Bacteroides vulgatus JCM 5826; test: Assimilation test, Bacteroides vulgatus; type: cell-based; conditions: PYF medium with 0.5% saccharide, 37° C., four days, anaerobic

Row | Structure (SMILES) | Enzymatic action, Enzyme of Strain C11 [1] | Product of transferring reaction, Enzyme of Stain A19 [2] | Decomposition percentage (%) by digestive enzyme [3] [%] | Enzymatic action, Enzyme of Strain N75 [4] | Coloration degree (A480 nm) ([5]; heating time 0 min) | Coloration degree (A480 nm) ([5]; heating time 30 min) | Coloration degree (A480 nm) ([5]; heating time 60 min) | Coloration degree (A480 nm) ([5]; heating time 90 min) | reducing power [6] | Assimilability [7] | Decomposition percentage (%) by digestive enzyme [8] [%] | digestibility relative to that of maltitol [8] | Assimilability [9]
1 | OC[C@@H](O)[C@@H](O[C@H]1O[C@H](CO)[C@@H](O)[C@H](O)[C@H]1O)[C@H](O)[C@@H](O)CO [Maltitol, reference compound] | − | ++ (a saccharide-transferred product was detected in an amount over ten percent through transfer reaction to acceptor) | 4.0 | − |  |  |  |  |  |  |  |  | 
2 | OCC1OC2OCC3O[C@H](O[C@H]4C(O)C(CO)OC(OCC5O[C@H](O[C@@H](C1O)C2O)C(O)C(O)[C@@H]5O)C4O)C(O)C(O)[C@@H]3O (stereo partly drawn) [Cyclotetrasaccharide, cyclo{→6)-α-D-glucopyranosyl-(1→3)-α-D-glucopyranosyl-(1→6)-α-D-glucopyranosyl-(1→3)-α-D-glucopyransoyl-(1→}] |  |  |  |  | 0.00 | 0.00 | 0.00 | 0.00 | below a detectable level | − (judged negative (−) when the post culture had a pH of 6.0 or higher) | 0.74 | ⅕ | − (judged negative (−) when the post culture had a pH of 6.0 or higher)
